Experimental data published in US20110280913A1, “Methods and Compositions for Delivering Therapeutic Agents in the Treatment of B-Cell Related Disorders” (THE OHIO STATE UNIVERSITY, priority 2008, published 2011).

Tests used:
[1] = test system: CLL cells; assay: Cytotoxicity in presence of cross-linking (annexin V/PI); format: cell-based, human; details: for cell death (antibody-mediated apoptosis in the presence of cross-linking): rituximab 10 μg/mL + 50 μg/mL anti-Fc
Procedure: Cells (10^6 cells/mL) were treated with commercially purchased alemtuzumab (anti-CD52; Ilex Pharmaceuticals, San Antonio, Tex.), rituximab (anti-CD20; Genentech, San Francisco, Calif.), or trastuzumab (anti-HER2; Genentech) at a concentration of 10 μg/mL. Goat antihuman IgG cross-linker (Fc specific; Jackson ImmunoResearch Laboratories, West Grove, Pa.) was added to the cell suspension 5 minutes after adding the primary antibodies at a concentration of 50 μg/mL.
In addition, samples with no treatment or crosslinker alone were collected at matched time points. Apoptosis of cells at 24 and 48 hours after treatment was measured by annexin V-fluorescein isothiocyanate/propidium iodide (PI) flow cytometry analysis according to the supplier's instructions (BD Biosciences).
Cytotoxicity results were expressed as percentage of total positive cells over untreated control [% positive cells=(% annexin^+ and/or PI^+ cells of treatment group)−(% annexin^+ and/or PI^+ cells of untreated control)].

[2] = test system: CLL cells; assay: ADCC, 4-hour 51Cr-release assay; format: cell-based, human; details: using alemtuzumab, data not shown
Procedure: For ADCC experiments, CD56^+ and CD19^+ cells were negatively purified from whole blood obtained from either healthy volunteers or CLL subjects by magnetic-activated cell sorting according to the manufacturer's recommendations (MiniMACS; Miltenyi Biotec, Auburn, Calif.). The purity of enriched populations was always greater than 95% of the total yield as detected by CD19 and CD3 staining.
ADCC activity was determined by standard 4-hour ^51Cr-release assay. ^51Cr-labeled target cells (10^5 CLL cells/mL) were incubated with media alone or in the presence of various antibodies (10 μg/mL) at 37° C. for 30 minutes. Unbound antibody was washed off and the cells plated at 10^4 cells/well. Effector cells (natural killer [NK] cells from healthy donors or CLL subjects) were then added to the plates at indicated effector-to-target (E:T) ratios. After a 4-hour incubation, supernatants were removed and measured using a gamma counter. The percentage of specific cell lysis was determined by the equation: % lysis=100×(ER−SR)/(MR−SR), where ER, SR, and MR represent experimental, spontaneous, and maximum release, respectively. Data were normalized to the untreated control.

Substance	change in alemtuzumab-mediated apoptosis with lenalidomide treatment ([1]; lenalidomide 48 hours, cross-linking, same conditions)	change in ADCC, lenalidomide versus untreated cells [2]	cell death (antibody-mediated apoptosis in the presence of cross-linking) ([1]; lenalidomide-treated CLL cells (48 hours), N=10, P<0.017)	cell death (antibody-mediated apoptosis in the presence of cross-linking) ([1]; vehicle-treated CLL cells (48 hours), N=10)
alemtuzumab: anti-CD52 antibody; Ilex Pharmaceuticals	No significant change	no significant change	–	–
rituximab: anti-CD20 antibody; Genentech	–	–	11% ±8%	25% ±11%
